Source: US9492460B2, “Carbazole compounds useful as bromodomain inhibitors” (Bristol-Myers Squibb Company, priority 2013, dated 2016)

Each compound was assayed against T1, bromodomain BRD4 (44-168), BRD4 (333-460), and BRD4 (1-477 or 44-460) (Homo sapiens, UniProt O60885) (assay: Time Resolved Fluorescence Resonance Energy Transfer (TR-FRET) binding assay). Conditions: one of the FRET assays described.
T1 construct: BRD4(44-168), BRD4(333-460), BRD4(44-460), BRD4(1-477), O60885-1; fused on or other part: N-terminal BirA biotinylation motif, biotinylated; The TVMV-cleavable His6 tag is removed, except in some BRD4(44-460) runs detected with anti-His terbium cryptate

Compound	IC50 [nM]
Cc1noc(C)c1-c1cc(C(N)=O)c2c3cc(NC(=O)C4CCOCC4)ccc3n(Cc3ccccc3)c2c1 [Example 145, 9-benzyl-2-(3,5-dimethyl-4-isoxazolyl)-6-((tetrahydro-2H-pyran-4-ylcarbonyl)amino)-9H-carbazole-4-carboxamide]	< 50
Cc1noc(C)c1-c1ccc2c3cc(C(=O)N4C[C@@H](C)O[C@@H](C)C4)ccc3n(S(C)(=O)=O)c2c1 [Example 23, 2-(3,5-dimethyl-4-isoxazolyl)-6-((cis-2,6-dimethyl-4-morpholinyl)carbonyl)-9-(methylsulfonyl)-9H-carbazole]	< 7500
Cc1noc(C)c1-c1cc(C(N)=O)c2c3cc(C(=O)N4CC(F)C4)ccc3n(Cc3ccc(Cl)c(F)c3)c2c1 [Example 86]	< 50
CNC(=O)c1cc(-c2c(C)noc2C)cc2c1c1cc(C(=O)N3CC(F)C3)ccc1n2C(C)c1ccccc1 (centres unmarked) [Example 113]	< 50
Cc1ccc(Cn2c3ccc(C(=O)N4CC(C)OC(C)C4)cc3c3ccc(-c4c(C)noc4C)cc32)cc1 (centres unmarked) [Example 21]	< 500
Cc1noc(C)c1-c1cc(C(N)=O)c2c3cc(C(=O)N4CCCCC4C)ccc3n(Cc3ccccc3)c2c1 (centres unmarked) [Example 73]	< 50
COc1ccccc1Cn1c2ccc(C(=O)N3CCC(F)C3)cc2c2c(C(N)=O)cc(-c3c(C)noc3C)cc21 (centres unmarked) [Example 82]	< 50

The next lines start with the values.

IC50 [nM]	Compound
< 50	Cc1noc(C)c1-c1cc(C(N)=O)c2c3ccc(C(C)(C)O)c(F)c3n(C(c3ccc(F)cc3)C3CCOCC3)c2c1 (single isomer, unassigned) [Example 224, 2-(Dimethyl-1,2-oxazol-4-yl)-8-fluoro-9-[(4-fluorophenyl)(oxan-4-yl)methyl]-7-(2-hydroxypropan-2-yl)-9H-carbazole-4-carboxamide]
< 50	Cc1noc(C)c1-c1cc(C(N)=O)c2c3ccc(C(=O)N4CCOCC4)cc3n(C(c3ccccc3)c3ccccc3)c2c1 [Example 196, 2-(3,5-Dimethyl-4-isoxazolyl)-9-(diphenylmethyl)-7-(4-morpholinylcarbonyl)-9H-carbazole-4-carboxamide]
< 50	Cc1noc(C)c1-c1cc(C(N)=O)c2c3ccc(C(C)(C)O)c(F)c3n(C(c3ccccc3)C3CCC(F)(F)CC3)c2c1 (single isomer, unassigned) [Example 227, 9-[(4,4-difluorocyclohexyl)(phenyl)methyl]-2-(dimethyl-1,2-oxazol-4-yl)-8-fluoro-7-(2-hydroxypropan-2-yl)-9H-carbazole-4-carboxamide]
< 50	Cc1noc(C)c1-c1cc(C(N)=O)c2c3ccc(C(C)(C)O)cc3n(C(c3ccccc3)C3(F)CCC3)c2c1 (single isomer, unassigned) [Example 221, 2-(Dimethyl-1,2-oxazol-4-yl)-9-[(1-fluorocyclobutyl)(phenyl)methyl]-7-(2-hydroxypropan-2-yl)-9H-carbazole-4-carboxamide]
